According to patent US20140219986A1, “DOSING REGIMENS FOR THE TREATMENT OF FABRY DISEASE” (AMICUS THERAPEUTICS ,INC., priority 2011, published 2014):
“And” between values parts separate entries of the source, which are not always exact repeats. Identical values can stand only once. Counter-ions that a name gives are not always drawn. Like-named read-outs stand apart in the source and are kept apart here.

How the values were obtained:
α-Gal A [1] = molecular target: T1, α-Gal A (Homo sapiens, UniProt P06280); test: Phase 2 co-administration study: PBMC α-Gal A activity (4-MUG); format: in vivo; conditions: for individual patient increases in PBMC α-Gal A activity: 1 mg/kg
T1 construct: purchased Genzyme Corporation (Fabrazyme®)
T1 sequence (P06280 32-429): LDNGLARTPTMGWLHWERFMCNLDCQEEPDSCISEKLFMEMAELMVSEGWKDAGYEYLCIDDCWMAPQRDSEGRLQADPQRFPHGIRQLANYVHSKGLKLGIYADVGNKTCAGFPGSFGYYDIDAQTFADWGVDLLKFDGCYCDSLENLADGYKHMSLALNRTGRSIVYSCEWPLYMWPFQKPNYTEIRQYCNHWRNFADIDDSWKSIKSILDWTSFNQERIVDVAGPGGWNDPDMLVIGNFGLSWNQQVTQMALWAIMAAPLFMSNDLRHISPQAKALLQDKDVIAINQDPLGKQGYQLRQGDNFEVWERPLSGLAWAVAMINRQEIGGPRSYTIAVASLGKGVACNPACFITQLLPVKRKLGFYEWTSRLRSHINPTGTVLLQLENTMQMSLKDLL
Description: WBC α-Gal A Levels. α-Gal A levels in WBCs will be determined in blood samples by a validated assay measuring enzyme activity using 4-MUG, with and without Con A. α-Gal A protein levels will be measured by Western blotting using anti-human Gal A antibody.
(§1) Methods. The study was conducted according to the methods described in Example 1. Specifically, this was an open-label, single dose, non-randomized, fixed-sequence, 2-stage study. Stage 1 comprised of 3 periods: • (1) agalsidase beta 0.5 mg/kg or 1.0 mg/kg (infusion for about 2 hours) or agalsidase alpha 0.2 mg/kg (infusion for about 40 min.) enzyme replacement montherapy (ERT); • (2) ERT+150 mg migalastat oral tablet (single dose) co-administration, migalastat administered 2 hrs. prior to ERT; and • (3) 150 mg migalastat monotherapy.
(§2) α-Gal A catalyzes the initial step in breakdown of substrate GL-3 in vivo. α-Gal A also acts on other substrates with the same α-bond such as the artificial low-molecular weight florescent substrate, 4-MUG. α-Gal A activity on 4-MUG was measured in vitro from plasma, skin, and PBMC samples following serial dilutions to dissociate migalastat.
(§3) 6 patients with plasma, skin, and PBMC α-galactosidase A activity from Stage 1, Periods 1 and 2, were evaluated. Four patients received 0.5 mg/kg agalsidase beta ERT and 2 patients received 1.0 mg/kg agalsidase beta ERT during Period 1, and co-administration of 150 mg migalastat 2 hours prior to initiation of the same dose of ERT during Period 2.
(§4) Serial blood samples were taken to 24 hours post dose for plasma α-Gal A activity and protein levels each period. Blood samples for α-Gal A activity in peripheral blood mononuclear cells (PBMCs) were taken at predose and on Days 1, 2, 7, and 14 of each period. Punch biopsies for skin α-Gal A activity were taken at predose Period 1 and on Days 2 and 7 during Periods 1 and 2. Plasma α-Gal A activity PK parameters include Cmax, Tmax, AUC0-t, AUC0-inf, and t1/2. Pharmacokinetic parameters are calculated using standard non-compartmental procedures (WINNONLIN version 5.0 or higher).
(§5) α-Gal A activity in plasma skin, and PBMC lysates were measured by a fluorescence enzyme assay using 4-methylumbelliferyl-α-D-galactopyranoside (4-MUG). α-Gal A activity on 4 MUG was measured in vitro following serial dilutions to dissociate migalastat.

rhα-Gal A [2] = molecular target: T2, rhα-Gal A (Homo sapiens, UniProt P06280); test: Oral migalastat hydrochloride with rhα-Gal A injection in the GLA deficient mouse, tissue α-Gal A and GL-3; format: in vivo; conditions: 30, 100 or 300 mg/kg oral 30 min prior to and 2 hours after rhα-Gal A, vs rhα-Gal A alone
T2 sequence (P06280 32-429): T1 sequence (P06280 32-429)

rhα-Gal A [3] = molecular target: T2, rhα-Gal A; test: In vitro stabilization of rhα-Gal A at neutral pH (thermal denaturation and activity); format: biochemical
From the text: Migalastat hydrochloride stabilizes wild-type α-Gal A in vitro and as well as in vivo.

[4] = Phase 2 co-administration study: safety; format: in vivo, human
From the text: Safety Parameters. Safety parameters will be assessed by review of changes in physical exam findings, vital signs, ECG changes over time, clinical labs and adverse events.
The safety parameters included adverse events (AEs), vital signs, clinical laboratory tests (hematology, serum chemistry, and urinalysis), electrocardiograms (ECGs), physical examinations, and use of concomitant medications.

[5] = male GLA-deficient mice; 3 and 30 mg/kg three times a week for four weeks with Fabrazyme 1 mg/kg i.v. once a week
Description: A preliminary study in GLA deficient mice has been conducted evaluating the safety of co-administered migalastat hydrochloride and Fabrazyme®. Migalastat hydrochloride was administered three times a week for four weeks at doses of 3 and 30 mg/kg in combination with Fabrazyme® administered intravenously once a week at a dose of 1 mg/kg.

α-Gal A [6] = molecular target: T1, α-Gal A; test: Phase 2 co-administration study: Western blot of plasma α-Gal A protein; format: in vivo; conditions: 5 out of 7 subjects
Description: Migalastat HCl and rhα-Gal A Pharmacokinetics. Concentrations of migalastat HCl in blood samples will be measured in plasma using a validated LC-MS/MS assay. α-Gal A levels in plasma will be determined by a validated assay measuring enzyme activity using 4-MUG, with and without Con A. α-Gal A protein levels will be measured by Western blotting using anti-human Gal A antibody.
Western blot analysis of α-Gal A protein were performed on plasma samples using anti-human α-Gal A antibody. An rhα-Gal A (agalsidase) standard curve was run to calculate the appropriate concentration of α-Gal protein in each sample.

agalsidase alfa = molecular target: T3, agalsidase alfa (Homo sapiens, UniProt P06280); test: In vitro thermal denaturation assay of agalsidase alfa; format: binding
T3 construct: purchased Shire Human Genetic Therapies (Replagal®)
T3 sequence (P06280 32-429): T1 sequence (P06280 32-429)
Description: The effect of migalastat hydrochloride on the physical stability of agalsidase alfa was evaluated with an in vitro thermal denaturation assay.

α-Gal A [7] = molecular target: T1, α-Gal A; test: Phase 2 co-administration study: skin α-Gal A activity (4-MUG); format: in vivo; conditions: 150 mg migalastat HCl + 0.5 mg/kg agalsidase beta, N=5 (Example 3)
α-Gal A [8] = molecular target: T1, α-Gal A; test: as above; format: in vivo
Description: α-Gal A Enzyme Levels in Skin. α-Gal A enzyme levels will be examined in skin biopsy samples. Skin biopsies will be done using a “punch” device. One piece will be removed at each visit. α-Gal A levels in skin will be determined by a validated assay measuring enzyme activity using 4-MUG, with and without Con A. α-Gal A protein levels will be measured by Western blotting using anti-human Gal A antibody.
as §1, §2, §3, §4, §5

α-Gal A [9] = molecular target: T1, α-Gal A; test: Phase 2 co-administration study: PBMC α-Gal A activity (4-MUG); format: in vivo; conditions: 150 mg migalastat HCl + 0.5 mg/kg agalsidase beta, N=5 (Example 3)
[10] = cited from earlier work
[11] = cited from earlier work; remark: listed apart in the source
[12] = cited from earlier work; remark: listed apart in the source
[13] = 150 mg migalastat + 1.0 mg/kg agalsidase beta, Day 2, N=2
[14] = 150 mg migalastat + 1.0 mg/kg agalsidase beta, Day 7, N=2

For `OC[C@H]1NC[C@H](O)[C@@H](O)[C@H]1O` [migalastat hydrochloride, (2R,3S,4R,5S)-2-(hydroxymethyl)piperidine-3,4,5-triol], the “individual patient increase range in PBMC α-Gal A activity” value (from here on “individual patient increase range”) (α-Gal A [1]; 150 mg migalastat + 0.5 mg/kg agalsidase beta, Day 2) was 1.4-3.1 fold, the “mean increase in PBMC α-Gal A activity” value (α-Gal A [1]; 150 mg migalastat + 0.5 mg/kg agalsidase beta, Day 2, N=4 (Example 2)) was 2.3 fold and the “individual patient increase range” value (α-Gal A [1]; 150 mg migalastat + 0.5 mg/kg agalsidase beta, Day 7) was 1.4-2.3 fold. For the same compound, the “mean increase in PBMC α-Gal A activity” value (α-Gal A [1]; 150 mg migalastat + 0.5 mg/kg agalsidase beta, Day 7, N=4 (Example 2)) was 2.0 fold, the “individual patient increase range” value (α-Gal A [1]; 150 mg migalastat + 0.5 mg/kg agalsidase beta, Day 14) was 1.7-2.8 fold and the “mean increase in PBMC α-Gal A activity” value (α-Gal A [1]; 150 mg migalastat + 0.5 mg/kg agalsidase beta, Day 14, N=4 (Example 2)) was 2.2 fold. The “individual patient increases in PBMC α-Gal A activity” value (α-Gal A [1]; 150 mg migalastat + 1.0 mg/kg agalsidase beta, Day 2) was 1.1 fold and 2.5 fold, the “mean increase in PBMC α-Gal A activity” value (α-Gal A [1]; [13]) was 1.8 fold and the “individual patient increases in PBMC α-Gal A activity” value (α-Gal A [1]; 150 mg migalastat + 1.0 mg/kg agalsidase beta, Day 7) was 3.6 fold and 6.0 fold. The “mean increase in PBMC α-Gal A activity” value (α-Gal A [1]; [14]) was 4.8 fold, the “individual patient increases in PBMC α-Gal A activity” value (α-Gal A [1]; 150 mg migalastat + 1.0 mg/kg agalsidase beta, Day 14) was 1.7 fold and 5.4 fold and the “mean increase in PBMC α-Gal A activity” value (α-Gal A [1]; 150 mg migalastat + 1.0 mg/kg agalsidase beta, Day 14, N=2) was 3.5 fold. For the same compound, the “GL-3 levels in skin, heart, kidney, and plasma” value (rhα-Gal A [2]) was “dose-dependent reduction”, the “tissue α-Gal A levels” value (rhα-Gal A [2]) was “dose-dependent increase” and the “stabilization of rhα-Gal A” value (rhα-Gal A [3]) was “significant time- and concentration-dependent increases in stabilization”. For the same compound, the safety and tolerability ([4]; co-administration of 150 mg migalastat HCl with agalsidase beta) was “generally safe and well-tolerated”, the “adverse events (AEs) reported” value ([4]; seven subjects, to date, one serious (TIA, prior to dosing), all considered unrelated to study drug) was 12 and the “survival, clinical condition, hematology and clinical chemistry parameters” value [5] was “no direct drug-related changes”. For the same compound, the “plasma α-Gal A protein, Period 2 (co-administration)/Period 1 (ERT alone) AUC ratio” value (α-Gal A [6]) was “No change”, the “melting temperature (Tm) of agalsidase alfa” value (“melting temperature (Tm)” below) (agalsidase alfa; pH 5.2, 10 μM migalastat hydrochloride) was 68 °C and the “melting temperature (Tm)” value (agalsidase alfa; pH 7.4, 10 μM migalastat hydrochloride) was 59 °C. The “mean increase in skin α-Gal A activity” value (α-Gal A [7]; Day 2) was 2.6 fold, the “mean increase in skin α-Gal A activity” value (α-Gal A [7]; Day 7) was 1.4 fold and the “individual patient increases in skin α-Gal A activity” value (α-Gal A [8]; 150 mg migalastat + 0.5 mg/kg agalsidase beta, Day 2 (Example 2), 0.5 mg/kg) was 2.8 fold and 3.9 fold and 1.1 fold. For the same compound, the “mean increase in skin α-Gal A activity” value (α-Gal A [8]; 150 mg migalastat + 0.5 mg/kg agalsidase beta, Day 2, N=3 (Example 2)) was 2.6 fold, the “change in skin α-Gal A activity from Period 1” value (α-Gal A [8]; 150 mg migalastat + 0.5 mg/kg agalsidase beta, Day 7 (Example 2)) was “No change” and the “individual patient increases in skin α-Gal A activity” value (α-Gal A [8]; 150 mg migalastat + 1.0 mg/kg agalsidase beta, Day 2, 1 mg/kg) was 1.6 fold and 2.1 fold. For the same compound, the “mean increase in skin α-Gal A activity” value (α-Gal A [8]; [13]) was 1.9 fold, the “individual patient increases in skin α-Gal A activity” value (α-Gal A [8]; 150 mg migalastat + 1.0 mg/kg agalsidase beta, Day 7, 1 mg/kg) was 1.7 fold and 1.2 fold and the “mean increase in skin α-Gal A activity” value (α-Gal A [8]; [14]) was 1.5 fold. The “patients with increased skin α-Gal A activity following co-administration” value (α-Gal A [8]; 150 mg migalastat + 0.5 or 1.0 mg/kg agalsidase beta, Day 7) was 3 of 5 and four, the “mean increase in PBMC α-Gal A activity” value (α-Gal A [9]; Day 2) was 2.4 fold and the “mean increase in PBMC α-Gal A activity” value (α-Gal A [9]; Day 7) was 1.9 fold. The “mean increase in PBMC α-Gal A activity” value (α-Gal A [9]; Day 14) was 2.1 fold.

In the case of “agalsidase alfa: recombinant α-Gal A enzyme replacement therapy (Replagal®, Shire Human Genetic Therapies)”, the AUC versus dose ([10]; 0.1 to 0.4 mg/kg) is given as “linearly proportional to dose”, the IgE antibodies ([10]; 10-week study) is given as “No IgE antibodies were detected” and the “patients who became IgG positive during the study” value ([10]; 10-week study) is given as “Two of 18”. The “Plasma GL-3 levels reduction” value ([10]; all dose groups, independent of dose and dosing frequency) was “approximately 50%”, the mean half life ([10]; doses 0.1 to 0.4 mg/kg agalsidase alfa, ERT naïve adult male Fabry patients) was 56 to 76 min and the “melting temperature (Tm)” value (agalsidase alfa; pH 5.2, enzyme alone) was 58 °C. For the same compound, the “melting temperature (Tm)” value (agalsidase alfa; pH 7.4, enzyme alone) was “approximately 51 °C”.

For “agalsidase beta: recombinant α-Gal A enzyme replacement therapy (Fabrazyme®; Genzyme Corporation)”, the “PBMC α-Gal A activity relative to baseline” value (α-Gal A [1]; agalsidase beta alone, all patients, all time points) is given as “increased”, the “pharmacokinetics, dose linearity” value ([11]; AUC increasing and clearance decreasing disproportionally with dose) is given as “non-linear pharmacokinetics” and the AUC increase ([11]; dose increased from 0.3 mg/kg to 1 mg/kg) is given as “approximately 6 fold”. For the same compound, the AUC increase ([11]; dose increased from 1 mg/kg to 3 mg/kg) was ~8 fold, the “patients with decreased skin α-Gal A activity relative to baseline” value (α-Gal A [8]; agalsidase beta alone, 0.5 mg/kg infusion, Day 2) was 2 and the “maximal agalsidase concentrations and AUC values reduced, of baseline values” ([12]; adult patients with the highest titers of IgG) was “up to 26%”. The “patients who developed IgG antibodies” value ([12]; adult patients) was 79% and the “patients who developed IgG antibodies” value ([12]; pediatric patients) was 69%.
